Test results taken from patent US12440496B2, “Natriuretic peptide receptor a agonists useful for the treatment of cardiometabolic diseases, kidney disease and diabetes” (Merck Sharp & Dohme LLC, priority 2019, dated 2025).
Structures can show the parent of a compound that is named as a salt.

Molecular target: T1, hNPRA (Homo sapiens, UniProt P16066)
T1 construct: expressed in transfected cells
T1 sequence (P16066 33-1061): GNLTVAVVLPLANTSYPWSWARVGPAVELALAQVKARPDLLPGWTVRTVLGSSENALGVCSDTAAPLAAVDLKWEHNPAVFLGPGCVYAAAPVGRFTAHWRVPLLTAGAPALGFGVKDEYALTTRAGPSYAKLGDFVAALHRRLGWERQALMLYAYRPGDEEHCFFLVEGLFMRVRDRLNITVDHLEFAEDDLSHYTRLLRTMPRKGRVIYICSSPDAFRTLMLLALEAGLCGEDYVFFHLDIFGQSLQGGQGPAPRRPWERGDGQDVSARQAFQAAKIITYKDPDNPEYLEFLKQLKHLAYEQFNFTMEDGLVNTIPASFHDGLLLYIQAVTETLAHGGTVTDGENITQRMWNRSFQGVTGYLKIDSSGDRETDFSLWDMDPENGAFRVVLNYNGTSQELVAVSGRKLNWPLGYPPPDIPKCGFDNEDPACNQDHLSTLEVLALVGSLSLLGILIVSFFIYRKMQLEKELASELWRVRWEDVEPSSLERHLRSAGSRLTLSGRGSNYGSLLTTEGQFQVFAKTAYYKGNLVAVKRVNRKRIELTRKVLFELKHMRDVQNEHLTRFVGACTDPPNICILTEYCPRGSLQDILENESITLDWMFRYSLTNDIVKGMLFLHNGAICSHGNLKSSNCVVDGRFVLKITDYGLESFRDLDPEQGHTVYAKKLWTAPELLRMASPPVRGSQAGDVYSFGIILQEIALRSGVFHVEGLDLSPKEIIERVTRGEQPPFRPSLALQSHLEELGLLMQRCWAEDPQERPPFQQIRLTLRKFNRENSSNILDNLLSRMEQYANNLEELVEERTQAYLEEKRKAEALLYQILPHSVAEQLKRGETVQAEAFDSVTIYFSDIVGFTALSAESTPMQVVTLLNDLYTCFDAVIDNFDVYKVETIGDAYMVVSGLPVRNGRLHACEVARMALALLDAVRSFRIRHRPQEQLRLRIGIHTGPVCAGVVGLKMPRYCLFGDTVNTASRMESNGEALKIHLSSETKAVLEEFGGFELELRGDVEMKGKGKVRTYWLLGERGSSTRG
Assay: NPRA Functional Cell Assay (cGMP HTRF, NPRA HEK JumpIn stable cells)
Format: cell-based
Conditions: cGMP production, 1 hour at 37° C., 10-point dose response
Summary of the method: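 cGMP HTRF read-out after 1 hour compound treatment at 37° C. of human NPRA-expressing HEK JumpIn cells, 1500 cells/well, in buffer with phosphodiesterase inhibitors IBMX and RO20 (100 uM each). Signal converted to [cGMP] by calibration curve; EC50s fitted by 4-parameter logistic; 50 nM h-ANP as positive response.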

EC50	SMILES
2040 nM	CC(C)C1(F)CCc2nc3sc(C(=O)N[C@H](CCN4CCC(O)CC4)c4ccc(N5CCOC5=O)cc4)nc3cc2C1 (stereo partly drawn) [Example 233, 7-fluoro-N-((R)-3-(4-hydroxypiperidin-1-yl)-1-(4-(2-oxooxazolidin-3-yl)phenyl)propyl)-7-isopropyl-5,6,7,8-tetrahydrothiazolo[5,4-b]quinoline-2-carboxamide]
511 nM	CC(C)(C)[C@H]1CCc2nc3sc(C(=O)N[C@H](CCN4CCCC4)c4ccc(-c5ccc(=O)[nH]c5)cc4)cc3cc2C1 (racemic) [Example 33, rac-(6S)-6-tert-butyl-N-[rac-(1R)-1-[4-(6-oxo-1H-pyridin-3-yl)phenyl]-3-pyrrolidin-1-ium-1-yl-propyl]-5,6,7,8-tetrahydrothieno[2,3-b]quinoline-2-carboxamide;formate]
764 nM	CN(C)S(=O)(=O)Nc1ccc([C@@H](CCN2CC[C@@H](O)C2)NC(=O)c2nc3cc4c(nc3s2)CC[C@H](C(C)(C)C)C4)cn1 (racemic) [Example 211, rac-(7S)-7-tert-butyl-N-[rac-(1R)-1-[6-(dimethylsulfamoylamino)-3-pyridyl]-3-[rac-(3R)-3-hydroxypyrrolidin-1-ium-1-yl]propyl]-5,6,7,8-tetrahydrothiazolo[5,4-b]quinoline-2-carboxamide; 2,2,2-trifluoroacetate]
658 nM	CNCC[C@@H](NC(=O)c1cc2cc3c(nc2s1)CC[C@H](C(C)(C)C)C3)c1ccc(-c2ccc(=O)[nH]c2)cc1 (racemic) [Example 42, rac-(6S)-6-tert-butyl-N-[rac-(1R)-3-(methylamino)-1-[4-(6-oxo-1H-pyridin-3-yl)phenyl]propyl]-5,6,7,8-tetrahydrothieno[2,3-b]quinoline-2-carboxamide]
632 nM	COC(=O)CC1CCN(CC[C@@H](NC(=O)c2nc3cc4c(nc3s2)CC[C@H](C(C)(C)C)C4)c2cccc(C(=O)NC3CN(C)C3)c2)CC1 (racemic) [Example 110, methyl 2-[1-[rac-(3R)-3-[3-{(1-methylazetidin-1-ium-3-yl)carbamoyl]phenyl]-3-[rac-(7S)-7-tert-butyl-5,6,7,8-tetrahydrothiazolo[5,4-b]quinoline-2-carbonyl]amino]propyl]-4-piperidyl]acetate; 2,2,2-trifluoroacetate]
925 nM	CC(C)(C)[C@H]1CCc2nc3sc(C(=O)N[C@H](CCN4CCC(O)CC4)c4ccc(-c5cnc(O)c(C#N)c5)cc4)nc3cc2C1 (racemic) [Example 172, rac-(7S)-7-tert-butyl-N-[rac-(1R)-1-[4-(5-cyano-6-hydroxy-3-pyridyl)phenyl]-3-(4-hydroxypiperidin-1-ium-1-yl)propyl]-5,6,7,8-tetrahydrothiazolo[5,4-b]quinoline-2-carboxamide; 2,2,2-trifluoroacetate]
222 nM	CC(C)(C)[C@H]1CCc2nc3sc(C(=O)N[C@H](CCN4CCC(O)(CN)CC4)c4ccc(-c5cnc(O)c(F)c5)cc4)nc3cc2C1 (racemic) [Example 199, [4-hydroxy-1-[rac-(3R)-3-[4-(5-fluoro-6-hydroxy-3-pyridyl)phenyl]-3-[[rac-(7S)-7-tert-butyl-5,6,7,8-tetrahydrothiazolo[5,4-b]quinoline-2-carbonyl]amino]propyl]-4-piperidyl]methylammonium; formate]
248 nM	CC(C)[C@]1(F)CCc2nc3sc(C(=O)N[C@H](CCN4CCC(O)CC4)c4ccc(-c5ccnnc5)nc4)nc3cc2C1 [Example 265, (S)-7-fluoro-N-((R)-3-(4-hydroxypiperidin-1-yl)-1-(6-(pyridazin-4-yl)pyridin-3-yl)propyl)-7-isopropyl-5,6,7,8-tetrahydrothiazolo[5,4-b]quinoline-2-carboxamide]
560 nM	O=C(N[C@H](CCN1CCC(O)CC1)c1ccc(-c2cnc(O)c(F)c2)cc1)c1nc2cc3c(nc2s1)CC[C@H](C1(C(F)(F)F)CC1)C3 [Example 235, (S)-N-((R)-1-(4-(5-fluoro-6-oxo-1,6-dihydropyridin-3-yl)phenyl)-3-(4-hydroxypiperidin-1-yl)propyl)-7-(1-(trifluoromethyl)cyclopropyl)-5,6,7,8-tetrahydrothiazolo[5,4-b]quinoline-2-carboxamide]
632 nM	Cc1n[nH]c(C)c1Oc1ccc([C@@H](CCN2CCC(O)CC2)NC(=O)c2nc3cc4c(nc3s2)CC[C@H](C(C)(C)C)C4)cn1 (racemic) [Example 191, rac-(7S)-7-tert-butyl-N-[rac-(1R)-1-[6-[(3,5-dimethyl-1H-pyrazol-4-yl)oxy]-3-pyridyl]-3-(4-hydroxy-1-piperidyl)propyl]-5,6,7,8-tetrahydrothiazolo[5,4-b]quinoline-2-carboxamide]
705 nM	CC(C)(C)[C@H]1CCc2nc3sc(C(=O)N[C@H](CCN4C[C@@H](O)[C@H](O)C4)c4ccc(-c5ccc(=O)[nH]c5)cc4)cc3cc2C1 (racemic) [Example 51, rac-(6S)-6-tert-butyl-N-[rac-(1R)-1-[4-(6-oxo-1H-pyridin-3-yl)phenyl]-3-[rac-(3R,4R)-3,4-dihydroxypyrrolidin-1-ium-1-yl]propyl]-5,6,7,8-tetrahydrothieno[2,3-b]quinoline-2-carboxamide;formate]
929 nM	CC(C)(C)[C@H]1CCc2nc3sc(C(=O)N[C@H](CCN4CCC(C(=O)O)CC4)c4cccc(C(=O)NC5CCN(C6CC6)C5)c4)nc3cc2C1 (mixture of isomers) [Example 124, 1-[rac-(3R)-3-[3-[(1-cyclopropylpyrrolidin-3-yl)carbamoyl]phenyl]-3-[[rac-(7S)-7-tert-butyl-5,6,7,8-tetrahydrothiazolo [5,4-b]quinoline-2-carbonyl]amino]propyl]piper idin-1-ium-4-carboxylic acid; 2,2,2-trifluoroacetate]
1230 nM	CN1CC(NCC[C@@H](NC(=O)c2cc3cc4c(nc3s2)CC[C@H](C(C)(C)C)C4)c2ccc(-c3ccc(=O)[nH]c3)cc2)C1 (racemic) [Example 64, (1-methylazetidin-3-yl)-[rac-(3R)-3-[4-(6-oxo-1H-pyridin-3-yl)phenyl]-3-[[rac-(6S)-6-tert-butyl-5,6,7,8-tetrahydrothieno[2,3-b]quinoline-2-carbonyl]amino]propyl] ammonium;formate]
560 nM	CC(C)(C)[C@H]1CCc2nc3sc(C(=O)N[C@H](CCN4CCC(O)CC4)c4ccc(-c5csc(C(=O)O)c5)nc4)nc3cc2C1 (racemic) [Example 197, 4-[5-[rac-(1R)-3-(4-hydroxypiperidin-1-ium-1-yl)-1-[[rac-(7S)-7-tert-butyl-5,6,7,8-tetrahydrothiazolo[5,4-b]quinoline-2-carbonyl]amino]propyl]-2-pyridyl]thiophene-2-carboxylic acid; 2,2,2-trifluoroacetate]
656 nM	CC(C)(C)[C@H]1CCc2nc3sc(C(=O)N[C@H](CCN4CCC(O)C4)c4ccc(-c5ccc(=O)[nH]c5)cc4)cc3cc2C1 (mixture of isomers) [Example 41, rac-(6S)-6-tert-butyl-N-[rac-(1R)-3-(3-hydroxypyrrolidin-1-ium-1-yl)-1-[4-(6-oxo-1H-pyridin-3-yl)phenyl]propyl]-5,6,7,8-tetrahydrothieno[2,3-b]quinoline-2-carboxamide;formate]
3220 nM	CC(C)(C)[C@H]1CCc2nc3sc(C(=O)N[C@H](CCN4CCCC4)c4ccccc4)cc3cc2C1 [Example 253, (6S)-6-tert-butyl-N-[(1R)-1-phenyl-3-pyrrolidin-1-ylpropyl]-5,6,7,8-tetrahydrothieno[2,3-b]quinoline-2-carboxamide]
146 nM	CN1CC(NC(=O)c2cccc([C@@H](CCN3CCC(CC(=O)O)CC3)NC(=O)c3nc4cc5c(nc4s3)CC[C@H](C(C)(C)C)C5)c2)C1 (racemic) [Example 101, 2-[1-[rac-(3R)-3-[3-[(1-methylazetidin-1-ium-3-yl)carbamoyl]phenyl]-3-[[rac-(7S)-7-tert-butyl-5,6,7,8-tetrahydrothiazolo [5,4-b]quinoline-2-carbonyl]amino]propyl]-4-piperidyl]acetic acid; 2,2,2-trifluoroacetate]
269 nM	CC(C)(C)[C@H]1CCc2nc3sc(C(=O)N[C@H](CCN4CCC(O)CC4)c4ccc(-c5ccc(=O)[nH]c5)cc4)nc3cc2C1 (racemic) [Example 73, rac-(7S)-7-tert-butyl-N-[rac-(1R)-3-(4-hydroxy-1-piperidyl)-1-[4-(6-oxo-1H-pyridin-3-yl)phenyl]propyl]-5,6,7,8-tetrahydrothiazolo[5,4-b]quinoline-2-carboxamide]
